# Experimental data from patent publication US9376425B2, “Heterocyclic compounds as MDM2 inhibitors for the treatment of cancer” (AMGEN INC., priority 2011, dated 2016).
# Target: T1, human MDM2 (GST-hMDM2 1-188), interaction with biotinylated-p53 (1-83) (Homo sapiens, UniProt Q00987)
# T1 construct: Amino acid residues 1-188 of human MDM2 were expressed; made in house; host or cells: Escherichia coli
# Test: improved HTRF assay (HTRF2 assay), inhibition of HDM2-p53 interaction
# Type: binding
# Settings: 0.2 nM GST-hMDM2, 0.5 nM biotinylated-p53, 100 mM KF
# Summary of the method: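 Time-resolved fluorescence (HTRF) read after >4 h equilibration with SA-XLent/anti-GST cryptate/KF detection reagents. Reaction: compound plus GST-hMDM2 for 20 min at room temperature, then E. coli-expressed biotinylated p53 residues 1-83 for 60 min, 2% DMSO final. Inhibition expressed versus nutlin-3.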
# T1 sequence (Q00987 1-188): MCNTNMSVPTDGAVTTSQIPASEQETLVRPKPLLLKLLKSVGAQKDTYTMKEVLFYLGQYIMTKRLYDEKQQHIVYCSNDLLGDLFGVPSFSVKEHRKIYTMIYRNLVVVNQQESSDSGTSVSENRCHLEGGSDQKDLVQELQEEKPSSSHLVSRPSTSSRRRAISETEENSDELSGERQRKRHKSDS
row,SMILES,IC50 [nM]
1,"C=CC[C@@H]1O[C@H](c2cccc(Cl)c2)[C@@H](c2ccc(Cl)cc2)N([C@@H](CC)CN(c2ccccn2)S(=O)(=O)C2CC2)C1=O (single isomer, unassigned) [Example 178, N-((S)-2-((2S,5R,6R)-2-allyl-6-(3-chlorophenyl)-5-(4-chlorophenyl)-3-oxomorpholino)butyl)-N-(pyridin-2-yl)cyclopropanesulfonamide or N-((S)-2-((2R,5R,6R)-2-allyl-6-(3-chlorophenyl)-5-(4-chlorophenyl)-3-oxomorpholino)butyl)-N-(pyridin-2-yl)cyclopropanesulfonamide]",182
2,"O=C(O)C[C@H]1O[C@H](c2cccc(Cl)c2)[C@@H](c2ccc(Cl)cc2)N([C@H](CN(c2ncccc2F)S(=O)(=O)C2CC2)C2CC2)C1=O (single isomer, unassigned) [Example 189, 2-((2R,5R,6R)-6-(3-chlorophenyl)-5-(4-chlorophenyl)-4-((S)-1-cyclopropyl-2-(N-(3-fluoropyridin-2-yl)cyclopropanesulfonamido)ethyl)-3-oxomorpholin-2-yl)acetic acid or 2-((2S,5R,6R)-6-(3-chlorophenyl)-5-(4-chlorophenyl)-4-((S)-1-cyclopropyl-2-(N-(3-fluoropyridin-2-yl)cyclopropanesulfonamido)ethyl)-3-oxomorpholin-2-yl)acetic acid]",< 1
3,"O=C1[C@@H](Cc2cnn[nH]2)O[C@H](c2cccc(Cl)c2)[C@@H](c2ccc(Cl)cc2)N1[C@H](CN(c1ccccc1F)S(=O)(=O)C1CC1)C1CC1 (single isomer, unassigned) [Example 395, N-((S)-2-((2R,5R,6R)-2-((1H-1,2,3-Triazol-5-yl)methyl)-6-(3-chlorophenyl)-5-(4-chlorophenyl)-3-oxomorpholino)-2-cyclopropylethyl)-N-(2-fluorophenyl)cyclopropanesulfonamide or N-((S)-2-((2S,5R,6R)-2-((1H-1,2,3-triazol-5-yl)methyl)-6-(3-chlorophenyl)-5-(4-chlorophenyl)-3-oxomorpholino)-2-cyclopropylethyl)-N-(2-fluorophenyl)cyclopropanesulfonamide]",1
4,"CC[C@@H](CS(=O)(=O)C(C)(C)C)N1C(=O)[C@@H](CC(=O)OC)O[C@H](c2cccc(Cl)c2)[C@H]1c1ccc(Cl)cc1 [Example 149, Methyl 2-((2R,5R,6R)-4-((S)-1-(tert-butylsulfonyl)butan-2-yl)-6-(3-chlorophenyl)-5-(4-chlorophenyl)-3-oxomorpholin-2-yl)acetate]",30
5,"CC(C)(C)S(=O)(=O)C[C@H](C1CC1)N1C(=O)[C@@H](CC(=O)Nc2ccccc2)O[C@H](c2cccc(Cl)c2)[C@H]1c1ccc(Cl)cc1 (single isomer, unassigned) [Example 350, 2-((2R,5R,6R)-4-((S)-2-(tert-Butylsulfonyl)-1-cyclopropylethyl)-6-(3-chlorophenyl)-5-(4-chlorophenyl)-3-oxomorpholin-2-yl)-N-phenylacetamide or 2-42S,5R,6R)-4-((S)-2-(tert-butylsulfonyl)-1-cyclopropylethyl)-6-(3-chlorophenyl)-5-(4-chlorophenyl)-3-oxomorpholin-2-yl)-N-phenylacetamide]",16
6,"CC[C@@H](CS(=O)(=O)C(C)(C)C)N1C(=O)[C@@H](CC(=O)O)O[C@H](c2cccc(Cl)c2)[C@H]1c1ccc(Cl)s1 (single isomer, unassigned) [Example 219, 2-((2R,5S,6R)-4-((S)-1-(tert-butylsulfonyl)butan-2-yl)-6-(3-chlorophenyl)-5-(5-chlorothiophen-2-yl)-3-oxomorpholin-2-yl)acetic acid or 2-((2S,5S,6R)-4-((S)-1-(tert-butylsulfonyl)butan-2-yl)-6-(3-chlorophenyl)-5-(5-chlorothiophen-2-yl)-3-oxomorpholin-2-yl)acetic acid]",1
7,"CC[C@@H](CS(=O)(=O)C(C)(C)C)N1C(=O)[C@@H](C[C@@H](O)CO)O[C@H](c2cccc(Cl)c2)[C@H]1c1ccc(Cl)cc1 (single isomer, unassigned) [Example 372]",67
8,"CC(C)(C)S(=O)(=O)C[C@H](C1CC1)N1C(=O)[C@@H](CC(=O)NCC(F)(F)F)O[C@H](c2cccc(Cl)c2)[C@H]1c1ccc(Cl)cc1 (single isomer, unassigned) [Example 347, 2-((2R,5R,6R)-4-((S)-2-(tert-Butylsulfonyl)-1-cyclopropylethyl)-6-(3-chlorophenyl)-5-(4-chlorophenyl)-3-oxomorpholin-2-yl)-N-(2,2,2-trifluoroethyl)acetamide or 2-((2S,5R,6R)-4-((S)-2-(tert-butylsulfonyl)-1-cyclopropylethyl)-6-(3-chlorophenyl)-5-(4-chlorophenyl)-3-oxomorpholin-2-yl)-N-(2,2,2-trifluoroethyl)acetamide]",4
9,"CC(C)(C)S(=O)(=O)C[C@H](CC(F)(F)F)N1C(=O)[C@@](C)(CC(=O)O)O[C@H](c2cccc(Cl)c2)[C@H]1c1ccc(Cl)cc1 (single isomer, unassigned) [Example 340, 2-((2R,5R,6R)-4-((S)-1-(tert-Butylsulfonyl)-4,4,4-trifluorobutan-2-yl)-6-(3-chlorophenyl)-5-(4-chlorophenyl)-2-methyl-3-oxomorpholin-2-yl)acetic acid or 2-((2S,5R,6R)-4-((S)-1-(tert-butylsulfonyl)-4,4,4-trifluorobutan-2-yl)-6-(3-chlorophenyl)-5-(4-chlorophenyl)-2-methyl-3-oxomorpholin-2-yl)acetic acid]",28
10,"CC[C@@H](CS(=O)(=O)C(C)(C)C)N1C(=O)[C@H](CC(=O)NC#N)O[C@H](c2cccc(Cl)c2)[C@H]1c1ccc(Cl)cc1 [Example 344, 2-((2S,5R,6R)-4-((S)-1-(tert-Butylsulfonyl)butan-2-yl)-6-(3-chlorophenyl)-5-(4-chlorophenyl)-3-oxomorpholin-2-yl)-N-cyanoacetamide]",< 1
11,"CC(C)(C)S(=O)(=O)C[C@H](C1CC1)N1C(=O)[C@@H](CC(=O)Nc2ccccn2)O[C@H](c2cccc(Cl)c2)[C@H]1c1ccc(Cl)cc1 (single isomer, unassigned) [Example 355, 2-((2R,5R,6R)-4-((S)-2-(tert-Butylsulfonyl)-1-cyclopropylethyl)-6-(3-chlorophenyl)-5-(4-chlorophenyl)-3-oxomorpholin-2-yl)-N-(pyridin-2-yl)acetamide or 2-((2S,5R,6R)-4-((S)-2-(tert-butylsulfonyl)-1-cyclopropylethyl)-6-(3-chlorophenyl)-5-(4-chlorophenyl)-3-oxomorpholin-2-yl)-N-(pyridin-2-yl)acetamide]",4
12,"CC(C)[C@@H](CN(c1ccccc1F)S(=O)(=O)C(C)(C)C)N1C(=O)[C@@H](CC(=O)O)O[C@H](c2cccc(Cl)c2)[C@H]1c1ccc(Cl)cc1 (single isomer, unassigned) [Example 200, 2-((2R,5R,6R)-6-(3-chlorophenyl)-5-(4-chlorophenyl)-4-((S)-1-(N-(2-fluorophenyl)-2-methylpropan-2-ylsulfonamido)-3-methylbutan-2-yl)-3-oxomorpholin-2-yl)acetic acid or 2-((2S,5R,6R)-6-(3-chlorophenyl)-5-(4-chlorophenyl)-4-((S)-1-(N-(2-fluorophenyl)-2-methylpropan-2-ylsulfonamido)-3-methylbutan-2-yl)-3-oxomorpholin-2-yl)acetic acid]",1
13,"CC[C@@H](CN(c1ccccc1Cl)S(=O)(=O)C1CC1)N1C(=O)[C@@H](CC(=O)O)O[C@H](c2cccc(Cl)c2)[C@H]1c1ccc(Cl)cc1 (single isomer, unassigned) [Example 264, 2-((2R,5R,6R)-6-(3-chlorophenyl)-5-(4-chlorophenyl)-4-((S)-1-(N-(2-chlorophenyl)cyclopropanesulfonamido)butan-2-yl)-3-oxomorpholin-2-yl)acetic acid or 2-((2S,5R,6R)-6-(3-chlorophenyl)-5-(4-chlorophenyl)-4-((S)-1-(N-(2-chlorophenyl)cyclopropanesulfonamido)butan-2-yl)-3-oxomorpholin-2-yl)acetic acid]",19
14,"CC[C@@H](CS(=O)(=O)C(C)(C)C)N1C(=O)[C@@H](CNC(C)=O)O[C@H](c2cccc(Cl)c2)[C@H]1c1ccc(Cl)cc1 (single isomer, unassigned) [Example 380, N-(((2R,5R,6R)-4-((S)-1-(tert-Butylsulfonyl)butan-2-yl)-6-(3-chlorophenyl)-5-(4-chlorophenyl)-3-oxomorpholin-2-yl)methyl)acetamide or N-(((2S,5R,6R)-4-((S)-1-(tert-butylsulfonyl)butan-2-yl)-6-(3-chlorophenyl)-5-(4-chlorophenyl)-3-oxomorpholin-2-yl)methyl)acetamide]",48
15,"CC[C@@H](CS(=O)(=O)C(C)(C)C)N1C(=O)[C@@H](CC(=O)O)O[C@H](c2cc(F)cc(Cl)c2)[C@H]1c1ccc(Cl)c(F)c1 (single isomer, unassigned) [Example 425, 2-((2R,5R,6R)-4-((S)-1-(tert-Butylsulfonyl)butan-2-yl)-5-(4-chloro-3-fluorophenyl)-6-(3-chloro-5-fluorophenyl)-3-oxomorpholin-2-yl)acetic acid or 2-((2S,5R,6R)-4-((S)-1-(tert-butylsulfonyl)butan-2-yl)-5-(4-chloro-3-fluorophenyl)-6-(3-chloro-5-fluorophenyl)-3-oxomorpholin-2-yl)acetic acid]",< 1
16,"CC[C@@H](CN(c1ccccc1F)S(=O)(=O)C1CC1)N1C(=O)[C@@H]([C@@H](C)C(=O)O)O[C@H](c2cccc(Cl)c2)[C@H]1c1ccc(Cl)cc1 (single isomer, unassigned) [Example 253]",18
